We go through 4 molecules from patent publication US11040052B2, “Methods and pharmaceutical compositions for modulating autophagy in a subject in need thereof” (INSERM (INSTITUT NATIONAL DE LA SANTE ET DE LA RECHERCHE …, priority 2013, dated 2021).

Entries after “also recorded” stand apart in the source; their conditions may differ.

Assay [1] concerns TAC-induced cardiac autophagy and remodeling. Briefly: In vivo model of pressure overload (thoracic aortic constriction, TAC). Set-up: species or system mice. The conditions noted are these: daily intra-peritoneal 300 mg/kg. On the procedure: Immuno-histochemical staining of heart tissue sections was performed using the Novolink Kit (Menarini Diagnostics, RE7140-K), as previously described (Ladoire et al., 2012). Briefly, […] formalin-fixed, paraffin-embedded tissue sections were deparaffinized with 3 successive passages through xylene, and rehydrated through decreasing concentrations (100%, 95%, 80%, 70% and 50%) of ethanol. Antigen retrieval was performed by heating slides for 30 min in pH 6.0 citrate buffer at 95° C. Slides were then allowed to cool at room temperature for 45 min, mounted on Shandon Sequenza coverplates (Thermo Fisher Scientific, 72-199-50) in distilled water, and then washed twice for 5 min with 0.1% Tween 20 (v/v in PBS). Thereafter, sections were incubated for 5 min with the Peroxidase Block reagent, and subsequently washed twice for 5 min with 0.1% Tween 20 (v/v in PBS). […] Two-dimensional echocardiography was performed prior to surgery and 1 week post-surgery in non-sedated mice to quantify functional parameters using a Vevo 2100 high-resolution imaging system (Visual Sonics). […] Quantitative analysis was obtained through measurement of an average of 900 cells in each section from two (sham) or three (TAC) animals.

For assay [2], the system named is CT26 derived tumors expressing pmeLUC. Briefly: Real time in vivo imaging of ATP release. The conditions noted are these: autophagy competent tumors, 48 hours post chemotherapy. Also on record: species or system mice. On the procedure:
BALB/c mice were subcutaneously inoculated with 3×10^5 SCR or ATG5^KD CT26 clones stably expressing pmeLUC probe, and tumor growth was monitored every 2 days. When tumor became palpable (about 8 days after injection), mice were divided in four experimental groups. The first one was intraperitoneally injected with 200 µl PBS and after 48 hs from the first injection, 200 µl of PBS was injected again (control group). The second one was injected the first time with 100 mg/kg hydroxycitrate in 200 µl of PBS and 48 hs later again 100 mg/kg hydroxycitrate in 200 µl of PBS. The third one was intraperitoneally injected with 100 mg/kg hydroxycitrate in 200 µl of PBS and 48 hs later with 100 mg/kg hydroxycitrate in 200 µl of PBS and 5.17 mg/Kg MTX in 200 µl di PBS. The last group were injected the first time with 200 µl of PBS and 48 hs later with 5.17 mg/Kg MTX in 200 µl di PBS. Thereafter, mice were anesthetized and imaged with Xenogen—IVIS® Lumina II (Caliper, Hopkinton, Mass., USA). D-luciferin (150 mg/kg) was intraperitoneally administered to mice 15 minutes before acquisitions, which were performed immediately before and after 48 hrs from compound injections. The regions of interest were identified around tumor sites and in vivo luminescence was identified as photons/s using the Living ImageH software (Caliper).

Assay [3] concerns MPA/DMBA induced mammary tumors. Description: MPA/DMBA induced mammary tumor. It counts as in vivo, mice. On the procedure: Six-week-old female Balb/c mice underwent surgical implantation of slow-release MPA (Medroxyprogesterone Acetate) pellets (50 mg, 90-day release; Innovative Research of America) subcutaneously on the right flank. 200 uL of 5 mg/mL DMBA (Dimethylbenzantracene)
(Sigma Aldrich) dissolved in Corn Oil was administered by oral gavage six times during 8 weeks. Tumor formation was monitored by palpation. When tumors became palpable, mice were assigned to following groups of treatment: PBS, HCA, MTX, MTX plus HCA and the MTX plus HCA upon CD4/CD8 lymphocytes depletion. Combinatorial groups were treated as previously described, whereas for CD4/CD8 depletion, mice were intraperitoneally administrated with 500 μg of anti CD4 and CD8 antibodies the day before the onset of the treatment.

The subject of a further assay is AMPK, mTORC1. Description: Immunoblot of AMPK phosphorylation and mTORC1 activity (p70s6k phosphorylation). It counts as cell-based, human. Particulars: nutrient-depleted (starved) cells in vitro. On the procedure: For immunoblotting, 25 μg of proteins were then separated on 4-12% Bis-Tris acrylamide (Invitrogen) or 12% Tris-Glycine SDS-PAGE precast gels (Biorad, Hercules, USA) and electrotransferred to ImmobilonTM membranes (Millipore Corporation, Billerica, USA). Membranes were then sliced in different parts according to the molecular weight of the protein of interest to allow simultaneous detection of different antigens within the same experiment. […] Development was performed with appropriate horseradish peroxidase (HRP)-labeled secondary antibodies (Southern Biotech, Birmingham, USA) plus the SuperSignal West Pico chemoluminescent substrate (Thermo Scientific-Pierce). An anti-glyceraldehyde-3-phosphate dehydrogenase antibody (Chemicon International, Temecula, USA) was used to control equal loading of lanes.
A general note: In western blotting, separated proteins are transferred to a membrane and probed.

Regarding `COC(=O)CCC(=O)C(=O)OC` [DMKG, dimethyl-α-ketoglutarate], in assay [1], the TAC-induced cardiac autophagy entry is reported as “decreased cardiac autophagy induced by thoracic aortic constriction (TAC); also recorded: inhibited the maladaptive accumulation of autophagosomes” and the “TAC-induced pathological remodeling / heart failure features” value is “suppressed TAC-induced pathological remodeling; also recorded: suppressed multiple features of TAC-induced heart failure”.
Consider `O=C(O)CC(O)(C(=O)O)C(O)C(=O)O` (stereo not drawn) [HC, hydroxycitrate], for which the “extracellular ATP release in vivo, combined with MTX” value in assay [2] is reported as “significantly enhances ATP release; also recorded: higher level of extracellular ATP accumulation”. Moreover, the “survival, combined with MTX” value in assay [3] (Kaplan-Meier) is recorded as “significantly increased survival”. Also, the “mammary tumor growth and survival, combined with MTX, T cell depleted” value in assay [3] (depletion of CD4 and CD8 T lymphocytes) is listed as “Beneficial effect of combinatorial treatment is lost”. Also, in assay [3] (mice capable of T-cell dependent immune response), the “mammary tumor growth, combined with MTX” value is “significantly diminish tumor growth; also recorded: unless they were combined”. In assay [3] (mouse, in vivo), the “mammary tumor growth, monotherapy” value is recorded as “had little effect”.
On to `CC(C)CC(=O)C(=O)O` [KIC, ketoisocaproic acid], for which the “AMPK phosphorylation and mTORC1 activity in starved cells” value in the assay with AMPK, mTORC1 was “inhibition of AMPK phosphorylation and reversion of mTORC1 dephosphorylation; also recorded: prevented starvation-associated mTORC1 inhibition and AMPK activation”.
Regarding `O=C(O)CCCCC1CCSS1` (stereo not drawn) [LA, lipoic acid], the “AMPK phosphorylation and mTORC1 activity in starved cells” value in the assay with AMPK, mTORC1 is given as “blunted starvation-induced mTORC1 inhibition, AMPK activation”.
